In brackets after ≈: the same amount, converted by molar mass. Like-named read-outs stand apart in the source and are kept apart here. Marks after values point to notes of the source that are not given here.
What was measured:
[1] = molecular target: T1, hCB2 (Homo sapiens, UniProt P34972); assay: Comparison of efficacy/potency and operational-model bias analysis between hCB2 pathways, reference CP 55,940; type: cell-based; details: for Internalisation – pERK Bias factor / cAMP – internalisation Bias factor / cAMP – pERK Bias factor: 10^ΔΔlogR; for Internalisation – pERK Bias factor / cAMP – internalisation Bias factor / cAMP – pERK Bias factor / Between-pathway signalling bias (in words): relative to CP 55,940; for Internalisation – pERK ΔΔlogR (±SEM) / cAMP – internalisation ΔΔlogR (±SEM) / cAMP – pERK ΔΔlogR (±SEM): relative to reference ligand CP 55,940
T1 construct: expressed in transfected cells; host or cells: HEK Flp-in

[2] = molecular target: T2, hCB1 (Homo sapiens, UniProt P21554); assay: Radioligand competition binding screen with [3H]-CP 55,940 on hCB1-expressing HEK membranes; details: for CB1 binding extent at 10 μM (%) (±SEM): 10 μM compound, displacement of 0.75 nM [3H]-CP 55,940; for CB2 selectivity over CB1 (in words): from CB1 binding at 10 μM versus CB2 affinity
T2 construct: expressed in transfected cells; host or cells: HEK (membranes)

[3] = molecular target: T1, hCB2; assay: Real-time CAMYEL BRET cAMP assay, forskolin-stimulated HEK Flp-in hCB2 cells; type: cell-based; details: for cAMP (5 min) Emax (±SEM): change relative to forskolin alone (100%), vehicle 0%, 10 and 14 approximate; for logR [log(τ/KA)] (±SEM) cAMP: operational model transduction ratio; for Emax: read-out: cAMP (5 min) Emax (±SEM)
Description: Cellular cAMP levels were measured using a real-time BRET biosensor (CAMYEL) as previously described ([Cawston et al., 2013]). In brief, cells were seeded in 10 cm dishes one day prior to transfection. The medium was then replaced and cells transfected with 5 μg of pcDNA3L-His-CAMYEL (ATCC, Manassas, VA, United States) using linear PEI (MW 25 kDa; Polysciences, Warrington, PA, United States) with a DNA:PEI ratio of 1:6. Approximately 24 h after transfection, cells were trypsinised and re-plated in poly-D-lysine treated white 96-well plates (Corning), at a density of 5–6 × 10^4 cells per well. For experiments involving pertussis toxin (PTX; Sigma-Aldrich) pre-treatment, cells were seeded in half the usual volume of medium, and then ∼5 h later, 2× concentrated PTX or vehicle (50% glycerol, […] Tris–HCl pH 7.5, 10 mM glycine, 500 mM NaCl) were prepared in medium and added to the existing plating medium (giving rise to a final PTX concentration of 100 ng mL^-1). Approximately 24 h after plating (or 16–20 h after applying PTX/vehicle in experiments involving PTX treatment), cells were washed once with Hank’s Balanced Salt Solution (HBSS, Thermo Fisher Scientific, catalogue #14025-134), and then equilibrated for 30 min in HBSS supplemented with 1 mg mL^-1 BSA. Coelenterazine h (final concentration 5 μM; NanoLight Technologies, Pinetop, AZ, United States) was added to each well and incubated for 5 min. Forskolin was added (final concentration 5 μM) and incubated for 6 min (allowing enough time for the induced cAMP increase to plateau), prior to vehicle/drug addition. All drugs and reagents were prepared in HBSS supplemented with 1 mg mL^-1 BSA. SR 144528 was a generous gift from Roche (Basel, Switzerland).
Assays were carried out in technical duplicate. Emissions were detected at 460 nm (Rluc) and 535 nm (YFP) with either a LUMIstar® Omega luminometer (BMG Labtech, Ortenberg, Germany) or CLARIOstar® (BMG Labtech). BRET ratios (535 nm emissions/460 nm emissions, where an increase in ratio corresponds to a decrease in cAMP) were normalised to pre-forskolin reads (i.e., with coelenterazine h present) to remove any variability present prior to addition of forskolin and drug/vehicle. A Lowess curve (GraphPad Prism) was fitted to individual technical replicates within an assay so that cAMP signalling data could be extrapolated from any time point as opposed to only those that were empirically measured (typically every 30–60 s). Data were normalised to matched vehicle (0%) and forskolin (100%) treatments, allowing compilation of data from independent experiments.

[4] = molecular target: T1, hCB2; assay: Radioligand competition binding with [3H]-CP 55,940 on hCB2-expressing HEK membranes; details: for inhibition at 10 µM: 1 h, read-out: CB2 binding extent at 10 μM (%) (±SEM)
[5] = molecular target: T1, hCB2; assay: pERK AlphaLISA assay, HEK Flp-in hCB2 cells; type: cell-based; details: for Behaviour in pERK pathway (in words): 4 min; for logR [log(τ/KA)] (±SEM) pERK: operational model transduction ratio; for Time of maximal pERK response: time course experiment; for Emax: read-out: pERK (4 min) Emax (±SEM)
[6] = tested on: CB2; design: method as in Yrjölä et al., 2015; details: ref Yrjölä et al., 2015; cited from earlier work
[7] = physchem; type: physicochemical; details: organic solvent or mixture
Excerpt: The piperazine-containing 1,3,5-triazines 1 and 7, assembled following literature protocols (compound “26a” in [Yrjölä et al., 2013]; compound “8” in [Yrjölä et al., 2015], respectively), were alkylated with various alkyl bromide linkers containing a Boc-protected amine at the terminus to give 3, 4, 8, 9 and 10 (Schemes 1, 2). These were then Boc-deprotected using acidic conditions to give primary amines 5, 6, 11, 12, and 13. One example of an acetylated linker (14) was also synthesised. Thirteen compounds were biologically tested (Table 1); five compounds had been reported previously (1, 2, 7, 15, 16) ([Yrjölä et al., 2013], [2015]), and the remainder were novel (5, 6, 9–14). […] 7 was therefore assayed in a higher final DMSO content (1%) than the other compounds (0.1%). Both vehicle concentrations were controlled for in all assays (negative/vehicle and positive controls).

[8] = molecular target: T1, hCB2; assay: hCB2 internalisation assay (immunocytochemistry of surface receptor), HEK Flp-in hCB2 cells; type: cell-based; design: Emax: dose or concentration left out as unconfirmed; details: for logR [log(τ/KA)] (±SEM) Internalisation: operational model transduction ratio
[9] = tested on: HEK Flp-in wt cells; assay: CAMYEL cAMP assay in HEK Flp-in wt cells (non-hCB2-mediated effects); type: cell-based, human; details: for Non-hCB2-mediated effects on cAMP (in words): HEK Flp-in wt
[10] = 5 min post-drug, 5 μM forskolin, 10 and 14 approximate (non-hCB2-mediated effects), read-out: cAMP (5 min) pEC50 (±SEM) (converted)
[11] = 5 min post-drug, 5 μM forskolin
[12] = 10 μM compound, displacement of 0.5 nM [3H]-CP 55,940
[13] = compared to methylpiperazinyl-15
[14] = heterologous competition vs [3H]-CP 55,940, read-out: CB2 pKi (±SEM) (converted)
[15] = 4 min stimulation, 14 approximate (low potency), read-out: pERK (4 min) pEC50 (±SEM) (converted)
[16] = read-out: Internalisation (1 h) Emax (±SEM)

T2 sequence (P21554 whole entry): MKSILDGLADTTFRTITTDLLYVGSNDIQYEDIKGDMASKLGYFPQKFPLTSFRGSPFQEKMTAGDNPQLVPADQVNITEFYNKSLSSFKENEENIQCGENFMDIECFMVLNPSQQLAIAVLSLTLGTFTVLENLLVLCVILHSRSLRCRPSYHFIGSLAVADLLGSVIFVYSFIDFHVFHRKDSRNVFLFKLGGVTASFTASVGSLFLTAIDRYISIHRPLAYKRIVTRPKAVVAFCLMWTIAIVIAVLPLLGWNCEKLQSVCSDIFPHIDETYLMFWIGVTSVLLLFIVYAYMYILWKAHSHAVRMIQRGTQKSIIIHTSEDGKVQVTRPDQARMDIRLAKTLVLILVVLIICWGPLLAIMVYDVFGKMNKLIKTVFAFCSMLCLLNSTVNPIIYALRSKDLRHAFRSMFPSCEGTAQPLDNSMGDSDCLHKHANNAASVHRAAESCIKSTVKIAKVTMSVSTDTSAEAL
T1 sequence (P34972 whole entry): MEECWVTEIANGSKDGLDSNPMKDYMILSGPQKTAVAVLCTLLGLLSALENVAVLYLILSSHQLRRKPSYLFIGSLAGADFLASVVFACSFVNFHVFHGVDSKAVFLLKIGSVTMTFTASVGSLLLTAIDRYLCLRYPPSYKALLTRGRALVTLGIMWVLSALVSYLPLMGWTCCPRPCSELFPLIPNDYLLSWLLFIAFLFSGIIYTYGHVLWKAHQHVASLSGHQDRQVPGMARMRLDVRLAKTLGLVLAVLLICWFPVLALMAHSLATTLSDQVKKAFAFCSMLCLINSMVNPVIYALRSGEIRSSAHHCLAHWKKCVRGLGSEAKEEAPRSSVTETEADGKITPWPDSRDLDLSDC

| SMILES | Internalisation – pERK Bias factor [1] | cAMP – internalisation Bias factor [1] | cAMP – pERK Bias factor [1] | Between-pathway signalling bias (in words) [1] | Internalisation – pERK ΔΔlogR (±SEM) [1] | cAMP – internalisation ΔΔlogR (±SEM) [1] | cAMP – pERK ΔΔlogR (±SEM) [1] | CB1 binding extent at 10 μM (%) (±SEM) [2] | CB2 selectivity over CB1 (in words) [2] | EC50 [3, 10] | cAMP (5 min) Emax (±SEM) [3, 11] | logR [log(τ/KA)] (±SEM) cAMP [3] | inhibition at 10 µM [4, 12] | Ki [4, 14] | Behaviour in pERK pathway (in words) [5] | EC50 [5, 15] | logR [log(τ/KA)] (±SEM) pERK [5] | Time of maximal pERK response [5] | GTPγS activity, % of maximum measured activity [6] | logR [log(τ/KA)] (±SEM) Internalisation [8] | other results |
| --- | --- | --- | --- | --- | --- | --- | --- | --- | --- | --- | --- | --- | --- | --- | --- | --- | --- | --- | --- | --- | --- |
| CCOc1nc(NC23CC4CC(CC(C4)C2)C3)nc(N2CCNCC2)n1 [Compound 7, N-(ad-amantan-1-yl)-4-ethoxy-6-(piperazin-1-yl)-1,3,5-triazi n-2-amine] | 15.4 | 1.3 | 20.3 | away from activation of pERK | 1.19 (0.16)*** | 0.12 (0.31) | 1.31 (0.27)*** | 13.7 (4.1) % | likely also CB2-selective | 85.1 nM | –43.0 (3.0) % | 7.29 (0.26) | 85.6% | 417 nM | weak partial agonists | 1820 nM | 5.51 (0.05) | 4 min | ~60% | 7.42 (0.26) | Reduction in hCB2 affinity compared to 15 [4, 13]: ~100 fold; solubility [7]: 1000 µM (≈ 358 µg/mL); EC50 ([8]; 1 h stimulation): 45.7 nM; Emax at 10 µM ([8]; read-out: Internalisation (1 h) Emax (±SEM), 1 h stimulation, change in surface hCB2 relative to vehicle-treated (100%), for 13 efficacy at 10 μM): -61.4%; Non-hCB2-mediated effects on cAMP (in words) [9]: most pronounced effects |
| CCOc1nc(NC23CC4CC(CC(C4)C2)C3)nc(N2CCN(CCF)CC2)n1 [Compound 16, N-(adamantan-1-yl)-4-et hoxy-6-(4-(2-fluoroethyl)piperazin-1-yl)-1,3,5-triazin-2-amine] | 2.2 | 0.7 | 1.6 | did not demonstrate any indication of between-pathway bias | 0.35 (0.13) | –0.14 (0.22) | 0.21 (0.20) | – | somewhat CB2-selective | 2.82 nM | –35.6 (2.2) % | 8.52 (0.19) | 95.6% | 1.62 nM | – | 12.3 nM | 7.84 (0.07) | 4 min | ~70% | 8.90 (0.19) | Efficacy relative to maximal efficacy measured across all compounds, all three pathways [1]: ~80%; Emax ([1]; read-out: Efficacy relative to maximal efficacy measured across all compounds, all three pathways, internalisation, cAMP and pERK): 75 to 80%; Functional GTPγS selectivity for CB2 versus CB1 [6]: 1000 to 10,000 fold; Behaviour in internalisation pathway (in words) ([8]; 1 h stimulation): significantly less efficacious; EC50 ([8]; 1 h stimulation): 1.2 nM; Non-hCB2-mediated effects on cAMP (in words) [9]: most pronounced effects |
| CCOc1nc(NC23CC4CC(CC(C4)C2)C3)nc(N2CCN(CCOCCOCCNC(C)=O)CC2)n1 [Compound 14, N-(2-(2-(2-(4-(4-((Adamantan-1-yl)Amino)-6-Ethoxy-1,3,5-Triazin-2-yl)Piperazin-1-yl)Ethoxy)Ethoxy) Ethyl)Acetamide] | 8.6 | 0.2 | 1.6 | biased towards internalisation | 0.93 (0.13)** | –0.73 (0.25)* | 0.20 (0.25) | –18.8 (11.4) % | likely also CB2-selective | – | – | 5.83 (0.23) | – | – | – | – | 5.16 (0.09) | 4 min | – | 6.81 (0.23) | EC50 [3]: 955 nM; Behaviour in cAMP pathway (in words) ([3]; 5 μM forskolin): partial agonists; Emax [3]: -29.8%; Ki [4]: 1780 nM; inhibition at 10 µM [4]: 76.2%; Reduction in hCB2 binding affinity compared to 15 [4, 13]: 2–3 log units; EC50 [5]: 7410 nM; Emax [5]: 4.66%; EC50 [8]: 174 nM; Emax [8, 16]: -61.8%; Non-hCB2-mediated cAMP effects: fold less potent than cAMP inhibition in hCB2-expressing cells ([9]; HEK Flp-in wt versus HEK Flp-in hCB2): ~5 fold |
| CCOc1nc(NC23CC4CC(CC(C4)C2)C3)nc(N2CCN(C)CC2)n1 [Compound 15, N-(Adamantan-1-yl)-4-ethoxy-6-(4-methylpiperazin-1-yl)-1,3,5-triazin-2-amine] | 5.7 | 0.3 | 1.6 | biased towards internalisation | 0.76 (0.15)* | –0.56 (0.15) | 0.20 (0.13) | – | somewhat CB2-selective | – | – | 8.12 (0.09) | – | – | equivalent efficacies to CP 55,940 | – | 7.45 (0.10) | 4 min | – | 8.92 (0.09) | EC50 [3]: 7.94 nM; Emax [3]: -39.6%; Ki [4]: 4.27 nM; inhibition at 10 µM [4]: 92.9%; EC50 [5]: 35.5 nM; Emax [5]: 9.96%; Functional GTPγS selectivity for CB2 versus CB1 [6]: 1000 to 10,000 fold; GTPγS functional behaviour (in words) [6]: full agonist; EC50 [8]: 1.23 nM; Emax [8, 16]: -56.5% |
